# Measurements published in US8084424B2, “Compositions and methods related to erythropoietin” (University of Utah Research Foundation, priority 2003, dated 2011).
# Where a SMILES comes first, the peptide text is derived from it. [ ]: non-standard residue; d: D form. The star is where a group is joined. Sta = CC(C)C[C@H](N)[C@@H](O)CC(=O)O; Isovaleryl = CC(C)CC(=O)*
# Experiments:
# [1] = system: proteases; assay: Protease inhibitor test: EPO degradation in concentrated medium at pH5.0, assayed by RIA; assay type: biochemical; conditions: pH5.0, 37° C.
# Procedure: Protease inhibitors can also be added to the conditioned medium in order to improve EPO yields. Several commercially available protease inhibitors were tested to see if they could prevent EPO degradation at pH5.0. 10× concentrated (Step 1) EPO medium was diluted 1:10 in 50 mM Na Acetate, pH5.0 and then incubated at 37° C. with or without protease inhibitors at a concentration of 5 micrograms/ml. Aliquots were taken over a period of 29 hours and assayed by RIA. […] Pepstatin was then tested to determine the minimum concentration at which it is effective. Under the same conditions as described above, pepstatin was included into 10× concentrated medium over range of 0.0005 to 1 ug/ml and incubated at 37° C. for 25 hours. […] To test the effect of pepstatin in the purification process, 0.2 ug/ml of pepstatin was added to the 10× concentrated medium and to the buffers for the S-Sepharose column. Under these conditions, 97% of EPO was recovered from the S-Sepharose Fast Flow column compared to approximately 60% without the use of a protease inhibitor.
# [2] = system: interstitial cells; assay: Interstitial cell proliferation in rat kidney (3H-thymidine histoautoradiography, hematoxylin and eosin staining); assay type: in vivo
# Procedure: Sprague-Dawley rats of both sexes, weighing from 180 to 200 g, were used throughout the study. A few days before the experiment, rats were adapted to the housing conditions in a central animal facility (regular 12 hours light/dark cycles, free access to standard rat chow and tap water). […] For histoautoradiographic studies, some treated animals and controls were further injected with 300 μCi of [methyl-^3H]-thymidine intraperitoneally 1 hour before their deaths.
# One half of the right kidney was immersed in Boulin solution and processed for paraffin sections (approximately 5-μm thickness) destined for histopathologic and/or histoautoradiographic study. For histopathologic use, sections were stained with hematoxylin and eosin with or without periodic acid-Schiff reagent or with Giemsa stain. Histoautoradiographic studies were performed and the data were presented as described earlier (Kishore et al., 1992; Laurent et al., 1983). Briefly each section was examined along parallel straight lines, extending from the subcapsular to the juxtamedullary region. The number of total and labeled nuclei (S-phase cells) were counted, and the corresponding cell type was identified.
# Histoautoradiographic labeling indices were subjected to ANOVA, and the significance of the F value was determined. […]
# [3] = 24 hour urine volume and urine osmolality; conditions: pre versus post treatment, versus saline
# [4] = system: kidney; assay: Renal histology: apoptosis, Trichrome staining for fibrosis, Vimetin immunostaining
# Source text: The immunohistochemical methods are standard and routinely used in many research and clinical labs.
# [5] = system: erythropoietin; assay: Immunohistochemical staining of kidney sections for erythropoietin; assay type: in vivo, rat; conditions: for erythropoietin staining of proliferating interstitial cells: 250 mg/kg/day sc for 4 days, euthanized on day 5; for EPO-producing peritubular cells after cessation of treatment: 6 days after the cessation of a 4-day treatment, 250 mg/kg/day
# Procedure: Male Sprague-Dawley rats were divided randomly into two groups. […] Kidneys were harvested quickly from the dead rats and one half of one kidney was immersed in 10% neutral buffered formalin. The formalin fixed kidneys were dehydrated and embedded in paraffin. Sections of 3 to 4 μM thickness were cut on a microtome. Sections were deparaffinized by standard methods and processed for immunohistochemical staining for CD73 (5′-nucleotidase) and erythropoietin (Epo) as described below.
# Deparaffinized kidney sections were treated for exposure of antigenic sites and blocked for non-specific binding by standard methods. Following this they were incubated with specific antibodies to CD 73 (marker for resident fibroblasts in kidney) or Epo. Goat polyclonal antibodies to CD73 and Epo were purchased from the Santa Cruz Biotechnology, Santa Cruz, Calif. They were used at a dilution of 1:50. After washing off the unreacted primary antibodies, the sections were incubated with biotinylated anti-goat polyclonal antibody (secondary antibody), followed by incubation with avidin-biotin complex. Sections were then washed and incubated with substrate to visualize the antigen-antibody reactions. Positive labeling in the sections is seen as brownish color. […] Sections were examined under a Reichert Microscope and digital images were captured using a Nikon Coolpix 0995 Digital Camera.
# [6] = Aggregation and ionisation of Poly-D-glutamic acid in solution; assay type: physicochemical; conditions: 10 mg/ml, solution at pH≦6
# Source text: (§1) The mechanism of Poly-D-Glu-induced acute lysosomal storage condition in proximal tubular cells was addressed.
# [7] = system: renal cortex; assay: Angiogenesis in the renal cortex; assay type: in vivo; conditions: treated rat kidney
# [8] = system: lysosomal enzymes (hexoseaminidase, cathepsin B, acid sphigomyelinase, and sulfatase B); assay: Lysosomal enzyme activities in kidney cortex after injection; assay type: in vivo, rat; conditions: one day after injection, not acid phosphatase
# Source text: as §1
Compound,"effect on EPO immunoactivity ([1]; 5 micrograms/ml, over 29 hours, RIA)","IC50 (the concentration at which 50% of the proteases are inhibited) ([1]; 10× concentrated medium, 25 hours, range 0.0005 to 1 ug/ml)","significant proliferative response of peritubular cells (3H-thymidine incorporation) ([2]; 7 days after the cessation of treatment, earlier studies)","interstitial cell labeling (3H-thymidine) ([2]; female rats treated for 2 days, versus saline)",ability of kidneys to concentrate urine as assessed by urine osmolality [3],"mesenchymal changes (Vimetin immunostaining) ([4]; rat, in vivo)",fibrotic changes in the kidney (Trichrome staining) ([4]; versus saline),erythropoietin staining of proliferating interstitial cells ([5]; listed as Poly-D-Glu),erythropoietin staining of proliferating interstitial cells ([5]; listed as poly-D-glutamic acid),EPO-producing peritubular cells after cessation of treatment [5],EPO-producing peritubular cells after cessation of treatment ([5]; listed as Poly-D-Glu),size of micronic aggregates formed [6] [μm],angiogenesis in the renal cortex [7],activities of several lysosomal enzymes in the kidney cortex [8]
CC(C)CC(=O)N[C@H](C(=O)N[C@H](C(=O)N[C@@H](CC(C)C)[C@@H](O)CC(=O)N[C@@H](C)C(=O)N[C@@H](CC(C)C)[C@@H](O)CC(=O)O)C(C)C)C(C)C [Pepstatin] (Isovaleryl-VV[Sta]A[Sta]-OH),significant stabilizing effect,approximately 0.02 ug/ml,,,,,,,,,,,,
Poly-D-glutamic acid,,,could not be observed,considerably increased,does not cause marked abnormalities,detectable mesenchymal changes,not much fibrotic reaction,labeled with EPO antibody,strongly stain,persistence,consistent labeling,≥ 10,angiogenesis,increased
